From PubChem BioAssay AID1259407 (Chemical Carcinogenesis Research Information System (CCRIS), 2018)
The source made the active and inactive calls. No rule for the calls is given here.

Test system: CCRIS mutagenicity, Ames/micronucleus/aberration tests
Experiment: CCRIS mutagenicity studies
[1] = Test System: AMES SALMONELLA TYPHIMURIUM, Strain/Indicator: TA98, Metabolic Activation: NONE, Method: PREINCUBATION
[2] = Test System: AMES SALMONELLA TYPHIMURIUM, Strain/Indicator: TA98, Metabolic Activation: NONE, Method: STANDARD PLATE
[3] = Test System: AMES SALMONELLA TYPHIMURIUM, Strain/Indicator: TA98, Metabolic Activation: RAT, LIVER, S-9, AROCLOR 1254, Method: STANDARD PLATE
[4] = Test System: AMES SALMONELLA TYPHIMURIUM, Strain/Indicator: TA100, Metabolic Activation: NONE, Method: PREINCUBATION
[5] = Test System: AMES SALMONELLA TYPHIMURIUM, Strain/Indicator: TA100, Metabolic Activation: NONE, Method: STANDARD PLATE
[6] = Test System: AMES SALMONELLA TYPHIMURIUM, Strain/Indicator: TA100, Metabolic Activation: RAT, LIVER, S-9, AROCLOR 1254, Method: STANDARD PLATE
[7] = Test System: AMES SALMONELLA TYPHIMURIUM, Strain/Indicator: TA1535, Metabolic Activation: NONE, Method: PREINCUBATION
[8] = Test System: AMES SALMONELLA TYPHIMURIUM, Strain/Indicator: TA1535, Metabolic Activation: NONE, Method: STANDARD PLATE
[9] = Test System: AMES SALMONELLA TYPHIMURIUM, Strain/Indicator: TA1535, Metabolic Activation: RAT, LIVER, S-9, AROCLOR 1254, Method: STANDARD PLATE
[10] = Test System: AMES SALMONELLA TYPHIMURIUM, Strain/Indicator: TA1537, Metabolic Activation: NONE, Method: PREINCUBATION
[11] = Test System: AMES SALMONELLA TYPHIMURIUM, Strain/Indicator: TA1537, Metabolic Activation: NONE, Method: STANDARD PLATE
[12] = Test System: AMES SALMONELLA TYPHIMURIUM, Strain/Indicator: TA1537, Metabolic Activation: RAT, LIVER, S-9, AROCLOR 1254, Method: STANDARD PLATE
[13] = Test System: AMES SALMONELLA TYPHIMURIUM, Strain/Indicator: TA1538, Metabolic Activation: NONE, Method: STANDARD PLATE

c1ccc(-c2ccccc2)cc1
mutagenic call (Test System: AMES SALMONELLA TYPHIMURIUM, Strain/Indicator: TA97, Metabolic Activation: NONE, Method: STANDARD PLATE): inactive; negative
mutagenic call (Test System: AMES SALMONELLA TYPHIMURIUM, Strain/Indicator: TA97, Metabolic Activation: RAT, LIVER, S-9, AROCLOR 1254, Method: STANDARD PLATE): inactive; negative
mutagenic call [1]: inactive; negative
mutagenic call [2]: inactive; negative
mutagenic call (Test System: AMES SALMONELLA TYPHIMURIUM, Strain/Indicator: TA98, Metabolic Activation: RAT LIVER S-9, PHENOBARBITAL AND BETA-NAPHTHOFLAVONE, Method: PREINCUBATION): inactive; negative
mutagenic call [3]: inactive; negative
mutagenic call [4]: inactive; negative
mutagenic call [5]: inactive; negative
mutagenic call (Test System: AMES SALMONELLA TYPHIMURIUM, Strain/Indicator: TA100, Metabolic Activation: RAT LIVER S-9, PHENOBARBITAL AND BETA-NAPHTHOFLAVONE, Method: PREINCUBATION): inactive; negative
mutagenic call [6]: inactive; negative
mutagenic call [7]: inactive; negative
mutagenic call [8]: inactive; negative
mutagenic call (Test System: AMES SALMONELLA TYPHIMURIUM, Strain/Indicator: TA1535, Metabolic Activation: RAT LIVER S-9, PHENOBARBITAL AND BETA-NAPHTHOFLAVONE, Method: PREINCUBATION): inactive; negative
mutagenic call [9]: inactive; negative
mutagenic call [10]: inactive; negative
mutagenic call [11]: inactive; negative
mutagenic call (Test System: AMES SALMONELLA TYPHIMURIUM, Strain/Indicator: TA1537, Metabolic Activation: RAT LIVER S-9, PHENOBARBITAL AND BETA-NAPHTHOFLAVONE, Method: PREINCUBATION): inactive; negative
mutagenic call [12]: inactive; negative
mutagenic call (Test System: E. COLI, Strain/Indicator: WP2, Metabolic Activation: NONE, Method: STANDARD PLATE): inactive; negative
mutagenic call (Test System: E. COLI, Strain/Indicator: WP2, Metabolic Activation: RAT, LIVER, S-9, AROCLOR 1254, Method: STANDARD PLATE): inactive; negative
mutagenic call (Test System: E.COLI, Strain/Indicator: WP2UVRA, Metabolic Activation: NONE, Method: PREINCUBATION): inactive; negative
mutagenic call (Test System: E.COLI, Strain/Indicator: WP2UVRA, Metabolic Activation: RAT LIVER S-9, PHENOBARBITAL AND BETA-NAPHTHOFLAVONE, Method: PREINCUBATION): inactive; negative
mutagenic call (Test System: MOUSE LYMPHOMA, Strain/Indicator: L5178Y (TK+/TK-), Metabolic Activation: NONE, Method: SUSPENSION/PLATE): active; positive
mutagenic call (Test System: MOUSE LYMPHOMA, Strain/Indicator: L5178Y (TK+/TK-), Metabolic Activation: RAT, LIVER, S-9, AROCLOR 1254, Method: SUSPENSION/PLATE): active; positive

C[N+]1=CC=C(c2ccccc2)CC1
mutagenic call [4]: active; positive
mutagenic call (Test System: AMES SALMONELLA TYPHIMURIUM, Strain/Indicator: TA102, Metabolic Activation: NONE, Method: PREINCUBATION): inactive; negative

CCCOc1cc2c(c3ccc4ccccc4c13)CCC2=O
mutagenic call [6]: inactive; negative

N#CC(Cl)Br (stereo unspecified)
mutagenic call [2]: inactive; negative
mutagenic call [3]: inactive; negative
mutagenic call (Test System: AMES SALMONELLA TYPHIMURIUM, Strain/Indicator: TA100, Metabolic Activation: NONE, Method: FLUCTUATION TEST): active; positive
mutagenic call [5]: inactive; negative
mutagenic call (Test System: AMES SALMONELLA TYPHIMURIUM, Strain/Indicator: TA100, Metabolic Activation: RAT, LIVER, S-9, AROCLOR 1254, Method: FLUCTUATION TEST): inactive; negative
mutagenic call [6]: active; positive
mutagenic call [8]: active; positive
mutagenic call [9]: active; positive

C=CCCCCCCCCC
mutagenic call (Test System: AMES SALMONELLA TYPHIMURIUM, Strain/Indicator: TA98, Metabolic Activation: MOUSE, LIVER, S-9, Method: STANDARD PLATE): inactive; negative
mutagenic call [2]: inactive; negative
mutagenic call (Test System: AMES SALMONELLA TYPHIMURIUM, Strain/Indicator: TA100, Metabolic Activation: MOUSE, LIVER, S-9, Method: STANDARD PLATE): inactive; negative
mutagenic call [5]: inactive; negative
mutagenic call [8]: inactive; negative
mutagenic call [13]: inactive; negative

Oc1cc2cc3c(ccc4ccccc43)cc2c2ccccc12
mutagenic call (Test System: CHINESE HAMSTER V-79, Strain/Indicator: V-79/8-AZAGUANINE, Metabolic Activation: NONE, Method: STANDARD PLATE): active; positive

O=Cc1ccccc1[N+](=O)[O-]
mutagenic call (Test System: AMES SALMONELLA TYPHIMURIUM, Strain/Indicator: TA98, Metabolic Activation: HAMSTER, LIVER, S-9, AROCLOR 1254, Method: STANDARD PLATE): inactive; negative
mutagenic call [1]: inactive; negative
mutagenic call [2]: inactive; negative
mutagenic call [3]: inactive; negative
mutagenic call (Test System: AMES SALMONELLA TYPHIMURIUM, Strain/Indicator: TA98, Metabolic Activation: RAT, LIVER, S-9, KANECHLOR 500, Method: PREINCUBATION): inactive; negative
mutagenic call (Test System: AMES SALMONELLA TYPHIMURIUM, Strain/Indicator: TA98, Method: PREINCUBATION): inactive; negative
mutagenic call (Test System: AMES SALMONELLA TYPHIMURIUM, Strain/Indicator: TA100, Metabolic Activation: HAMSTER, LIVER, S-9, AROCLOR 1254, Method: STANDARD PLATE): inactive; negative
mutagenic call [4]: inactive; negative
mutagenic call [5]: inactive; negative
mutagenic call [6]: inactive; negative
mutagenic call (Test System: AMES SALMONELLA TYPHIMURIUM, Strain/Indicator: TA100, Metabolic Activation: RAT, LIVER, S-9, KANECHLOR 500, Method: PREINCUBATION): inactive; negative
mutagenic call (Test System: AMES SALMONELLA TYPHIMURIUM, Strain/Indicator: TA100, Method: PREINCUBATION): inactive; negative
mutagenic call (Test System: AMES SALMONELLA TYPHIMURIUM, Strain/Indicator: TA1535, Metabolic Activation: HAMSTER, LIVER, S-9, AROCLOR 1254, Method: STANDARD PLATE): inactive; negative
mutagenic call [7]: inactive; negative
mutagenic call [8]: inactive; negative
mutagenic call [9]: inactive; negative
mutagenic call (Test System: AMES SALMONELLA TYPHIMURIUM, Strain/Indicator: TA1535, Method: PREINCUBATION): inactive; negative
mutagenic call (Test System: AMES SALMONELLA TYPHIMURIUM, Strain/Indicator: TA1537, Metabolic Activation: HAMSTER, LIVER, S-9, AROCLOR 1254, Method: STANDARD PLATE): inactive; negative
mutagenic call [10]: inactive; negative
mutagenic call [11]: inactive; negative
mutagenic call [12]: inactive; negative
mutagenic call (Test System: AMES SALMONELLA TYPHIMURIUM, Strain/Indicator: TA1537, Method: PREINCUBATION): inactive; negative
mutagenic call (Test System: AMES SALMONELLA TYPHIMURIUM, Strain/Indicator: TA1538, Metabolic Activation: HAMSTER, LIVER, S-9, AROCLOR 1254, Method: STANDARD PLATE): inactive; negative
mutagenic call (Test System: AMES SALMONELLA TYPHIMURIUM, Strain/Indicator: TA1538, Metabolic Activation: NONE, Method: PREINCUBATION): inactive; negative
mutagenic call [13]: inactive; negative
mutagenic call (Test System: AMES SALMONELLA TYPHIMURIUM, Strain/Indicator: TA1538, Metabolic Activation: RAT, LIVER, S-9, AROCLOR 1254, Method: STANDARD PLATE): inactive; negative
mutagenic call (Test System: AMES SALMONELLA TYPHIMURIUM, Strain/Indicator: TA1538, Method: PREINCUBATION): inactive; negative
mutagenic call (Test System: Mouse lymphoma, Strain/Indicator: L5178Y (tk+/tk-), Metabolic Activation: None, Method: Suspension/plate): inactive; negative
mutagenic call (Test System: Mouse lymphoma, Strain/Indicator: L5178Y (tk+/tk-), Metabolic Activation: Rat, Liver, S-9, Aroclor 1254, Method: Suspension/plate): inactive; negative
